The values that follow come from US10328052B2, “D-proline derivatives as SAP depleting agent” (GlaxoSmithKline Intellectual Property Development Limited, priority 2015, dated 2019).

In general, IC50 refers to the point on the concentration scale where inhibition reaches its midpoint.

Like-named read-outs stand apart in the source and are kept apart here.

For data set [1] the following is noted: very low and variable; cited from earlier work.
The target in another data set is T1, circulating SAP (Homo sapiens, UniProt P02743).
T1 construct: host or cells: patients' plasma (in vivo)
Conditions: systemic amyloidosis patients, for as long as the drug was administered; cited from earlier work.

The target in the next data set is T2, SAP (Homo sapiens, UniProt P02743).
T2 construct: reduces the CSF SAP concentration from 2-30 μg/L to <0.1 μg/L in patients with Alzheimer's disease; host or cells: patients' plasma and cerebrospinal fluid (in vivo)
The settings on record: cited from earlier work.

In a further data set the target is T3, CYP3A4 (Homo sapiens, UniProt P08684).
T3 construct: purchased Cypex; host or cells: bactosomes (bacterial membranes)
Put plainly: Cytochrome p450 inhibition, bactosomes, fluorogenic substrates 7BQ and DEF. In kind it is in vitro ADME. Conditions: for IC50: bactosomes. How it is done:
The assay was designed to evaluate inhibition on cytochrome P450 (CYP) 3A4, 2C9, 2C19, 1A2 and 2D6 enzymes from bactosomes source using fluorogenic substrates. Compound (compound of Formula (I) or Comparator Compound) was dissolved in methanol at 1.65 mM. Daughter solutions were prepared in methanol at 660, 264, 106, 42, 17, 6.8, 2.7, 1.1 and 0.43 μM. NADPH cofactor was prepared with Glucose-6-phosphate (7.8 mg), Glucose-6-phosphate dehydrogenase (6 units), NADP (1.7 mg) per 1 mL in NaHCO3 2%. Substrate Preparation was as Follows: • 7-Methoxy-4-triFluoromethyl Coumarin-3-Acetic acid ethyl ester (FCA): 12.5 mM in acetonitrile • EthoxyResorufin (ER): 0.05 mM in acetonitrile • 4-MethylaminoMethyl-7-Methoxy Coumarin (MMC): 2.5 mM in methanol • 3-Butyryl-7Methoxy Coumarin (BMC): 2.5 mM in DMSO • 7-BenzyloxyQuinoline (7BQ): 2.5 mM in acetonitrile • DiEthoxyFluorescein (DEF): 0.1 mM in acetonitrile Bactosomes (Cypex source) at the concentration of 10 mg of protein per mL were diluted in phosphate buffer 50 mM pH7.4: • 0.33 mL of bactosomes CYP2C9 with 23.8 mL of buffer and 0.11 mL of FCA • 0.33 mL of bactosomes CYP1A2 with 23.6 mL of buffer and 0.275 mL of ER • 0.33 mL of bactosomes CYP2D6 with 23.8 mL of buffer and 0.11 mL of MMC • 0.33 mL of bactosomes CYP2C19 with 23.8 mL of buffer and 0.11 mL of BMC • 0.33 mL of bactosomes CYP3[…] with 23.6 mL of buffer and 0.275 mL of 7BQ • 0.33 mL of bactosomes CYP3[…] with 23.6 mL of buffer and 0.275 mL of DEF Pre-Incubation consisted in mixing 5 μL of compound solution with 220 μL diluted bactosomes and warming it at 37° C. for 10 min. Incubation was started with the addition of 25 μL of NADPH. Then fluorescence of substrate metabolite was read in a SAFIRE instrument (from Tecan) for 5 min: • FCA (2C9): Excitation at 410 nm and Emission at 510 nm • ER (1A2): Excitation at 530 nm and Emission at 590 nm • MMC (2D6): Excitation at 410 nm and Emission at 485 nm • BMC (2C19): Excitation at 410 nm and Emission at 465 nm • 7BQ (3A4H): Excitation at 410 nm and Emission at 530 nm • DEF (3A4L): Excitation at 485 nm and Emission at 530 nm Plotting of inhibition of substrate production against compound concentration allowed the determination of IC50 values.

Data set [2] is described as follows: Solubility in aqueous media. In kind it is physicochemical. The settings on record: thermodynamic from solid, 4 hour timepoint, read-out: Solubility (mg/mL) at 4 hour timepoint. On the procedure: A known quantity of the compound of Formula (I) was weighed into a suitable vessel (e.g. a screw capped clear glass vial) and a known volume of the required media added (e.g. Simulated Gastric Fluid pH 1.6 [SGF], Simulated Fed State Intestinal Fluid pH 6.5 [FeSSIF], Simulated Fasted State Intestinal Fluid pH 6.5 [FaSSIF], Water [Purified Water], or Britton-Robinson buffer). The compound was wetted with the media by vortex mixing for 30 seconds to 1 minute. The sample was then visually observed to ensure that undissolved solid remained present. The sample was transferred to a gentle mixer (such as a roller mixer) and allowed to agitate until the desired time point was reached. At appropriate times the sample was reassessed visually. If all the solid had dissolved the solubility was recorded as >x mg/mL where x is the known weight used divided by the volume added. If undissolved solid remained a portion of the sample was taken and centrifuged to remove the solid leaving a clear supernatant. The supernatant was diluted volumetrically with a suitable diluent to provide an analytical sample of suitable concentration for analysis. This diluted sample was then analysed by a suitable method such as HPLC against a standard(s) of known concentration. The solubility of the compound can then be calculated using a knowledge of the concentration of the standard, the relative response (e.g. peak areas) of the standard and the analytical sample described, and the dilution of the analytical sample.

A further data set deals with T4, CYP2D6 (Homo sapiens, UniProt P10635).
T4 construct: purchased Cypex; host or cells: bactosomes (bacterial membranes)
Put plainly: Cytochrome p450 inhibition, bactosomes, fluorogenic substrate MMC. In kind it is in vitro ADME. How it is done:
(§1) The assay was designed to evaluate inhibition on cytochrome P450 (CYP) 3A4, 2C9, 2C19, 1A2 and 2D6 enzymes from bactosomes source using fluorogenic substrates. Compound (compound of Formula (I) or Comparator Compound) was dissolved in methanol at 1.65 mM. Daughter solutions were prepared in methanol at 660, 264, 106, 42, 17, 6.8, 2.7, 1.1 and 0.43 μM. NADPH cofactor was prepared with Glucose-6-phosphate (7.8 mg), Glucose-6-phosphate dehydrogenase (6 units), NADP (1.7 mg) per 1 mL in NaHCO3 2%. […]

The target in another data set is T5, CYP1A2 (Homo sapiens, UniProt P05177).
T5 construct: purchased Cypex; host or cells: bactosomes (bacterial membranes)
T5 sequence (P05177 1-516): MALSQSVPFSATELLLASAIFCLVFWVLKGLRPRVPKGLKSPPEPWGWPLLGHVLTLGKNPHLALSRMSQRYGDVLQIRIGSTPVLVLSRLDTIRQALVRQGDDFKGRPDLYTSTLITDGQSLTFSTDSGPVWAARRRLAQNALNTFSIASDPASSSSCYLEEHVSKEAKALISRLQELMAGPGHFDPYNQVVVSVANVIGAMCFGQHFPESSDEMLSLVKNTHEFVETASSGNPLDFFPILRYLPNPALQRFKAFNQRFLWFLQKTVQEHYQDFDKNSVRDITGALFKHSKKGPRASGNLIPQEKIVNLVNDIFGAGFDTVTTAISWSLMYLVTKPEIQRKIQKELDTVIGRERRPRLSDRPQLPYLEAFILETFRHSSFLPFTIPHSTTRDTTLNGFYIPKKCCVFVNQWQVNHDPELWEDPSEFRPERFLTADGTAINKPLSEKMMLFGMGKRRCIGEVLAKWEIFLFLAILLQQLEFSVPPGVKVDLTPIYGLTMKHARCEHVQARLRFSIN
Put plainly: Cytochrome p450 inhibition, bactosomes, fluorogenic substrate ER. In kind it is in vitro ADME. How it is done:
as §1

The target in a further data set is T6, CYP2C9 (Homo sapiens, UniProt P11712).
T6 construct: purchased Cypex; host or cells: bactosomes (bacterial membranes)
Briefly: Cytochrome p450 inhibition, bactosomes, fluorogenic substrate FCA. Type of data set: in vitro ADME. How it is done: as §1

The target of the next data set is T7, CYP2C19 (Homo sapiens, UniProt P33261).
T7 construct: purchased Cypex; host or cells: bactosomes (bacterial membranes)
Put plainly: Cytochrome p450 inhibition, bactosomes, fluorogenic substrate BMC. Type of data set: in vitro ADME. How it is done:
as §1

Data set [3] is described as follows: Physical stability (hydrolysis) in phosphate buffer at various pHs. In kind it is physicochemical. On the procedure:
The assay was designed for determining physical stability of compound in buffer at various pHs. Compound of Formula (I) was dissolved in DMSO at 1 mg/mL. Phosphate buffer (PBS) was prepared by mixing K2HPO4 50 mM and KH2PO4 50 mM solutions to obtain 4 buffers at pH 6.0, 7.0, 7.5, 8.0.
Stability studies were conducted at room temperature, and were started by the addition of 8 μL of DMSO solution to 792 μL of PBS 50 mM at pH 6.0, 7.0, 7.5 or 8.0 (1% DMSO). 75 μl of mixture was taken at 0, 1, 2, 4 and 24 h and 225 μL acetonitrile containing internal standard was added.
2 μL of samples were injected into the liquid chromatography system and eluted with a Ascentis C18 column (50×2.1 mm id, 2.7 μm) and with 0.1% formic acid in water (A) and 0.1% formic acid in acetonitrile (B), using the following elution 2 min gradient: 5 to 95% B over 1.2 min, 95% B over 0.6 min and 0.1 min for re-equilibrate column, at 0.5 mL/min at 50° C.
Samples were analysed by Mass Spectrometry with an electrospray source and in positive mode and with following mass transitions: • Compound of Formula (I): 625 to 368 • Monoester of CPHPC: 483 to 226 • CPHPC: 341 to 226

Data set [4] in a line: Intestinal microsomal stability. In kind it is in vitro ADME. The settings on record: up to 30 minutes, 37° C. On the procedure:
The assay was designed for determining stability of compound in microsomal matrix. Compound (Compound of Formula (I)) was dissolved in DMSO at 1 mg/mL. Daughter solution was prepared in methanol/water (50/50) at 30.3 ng/mL. Microsomes (from Xenotech) were diluted at 0.625 mg proteins per mL in phosphate buffer 50 mM pH 7.4.
Pre-Incubation consisted of warming microsomal solution 395 μL with 100 μL NaHCO3 (2%) at 37° C. for 7 min. Incubation was started with the addition of 5 μL of daughter solution. 50 μL aliquots of mixture were taken at 0, 3, 6, 12 and 30 min and quenched with 150 μL acetonitrile containing internal standard.
After 10 min centrifugation at 4000 rpm, 2 μL of samples were injected into the liquid chromatography system and eluted on a Ascentis C18 column (50×2.1 mm id, 2.7 μm) with 0.1% formic acid in water (A) and 0.1% formic acid in acetonitrile (B), using the following 2 minute elution gradient: 5 to 95% B over 1.2 min, 95% B over 0.6 min and 0.1 min for re-equilibrate column, at 0.5 mL/min at 50° C.
Samples were analysed by Mass Spectrometry with an electrospray source, in positive mode and with following mass transitions: • Compound of Formula (I): 625 to 368 • Monoester of CPHPC: 483 to 226 • CPHPC: 341 to 226
Controls were made to calculate percentage of disappearance of parent but also appearance of suspected metabolite, i.e. monoester and diacidic form.

Setting [5] is: substrate DEF, read-out: IC50 CYP3A4 (DEF).

T3 sequence (P08684 whole entry): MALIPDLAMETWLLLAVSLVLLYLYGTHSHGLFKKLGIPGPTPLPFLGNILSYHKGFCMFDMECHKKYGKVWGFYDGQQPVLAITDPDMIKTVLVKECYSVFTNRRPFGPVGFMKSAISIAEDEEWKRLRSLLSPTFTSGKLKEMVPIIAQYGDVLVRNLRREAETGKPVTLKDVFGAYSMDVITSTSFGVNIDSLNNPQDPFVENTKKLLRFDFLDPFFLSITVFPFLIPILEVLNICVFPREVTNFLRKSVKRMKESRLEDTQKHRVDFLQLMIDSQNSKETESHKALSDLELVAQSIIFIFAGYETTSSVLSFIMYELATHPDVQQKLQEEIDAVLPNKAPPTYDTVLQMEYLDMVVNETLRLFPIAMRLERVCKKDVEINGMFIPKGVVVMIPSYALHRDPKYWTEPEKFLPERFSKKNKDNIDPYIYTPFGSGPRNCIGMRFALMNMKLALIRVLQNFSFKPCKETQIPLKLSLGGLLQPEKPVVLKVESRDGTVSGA
T4 sequence (P10635 whole entry): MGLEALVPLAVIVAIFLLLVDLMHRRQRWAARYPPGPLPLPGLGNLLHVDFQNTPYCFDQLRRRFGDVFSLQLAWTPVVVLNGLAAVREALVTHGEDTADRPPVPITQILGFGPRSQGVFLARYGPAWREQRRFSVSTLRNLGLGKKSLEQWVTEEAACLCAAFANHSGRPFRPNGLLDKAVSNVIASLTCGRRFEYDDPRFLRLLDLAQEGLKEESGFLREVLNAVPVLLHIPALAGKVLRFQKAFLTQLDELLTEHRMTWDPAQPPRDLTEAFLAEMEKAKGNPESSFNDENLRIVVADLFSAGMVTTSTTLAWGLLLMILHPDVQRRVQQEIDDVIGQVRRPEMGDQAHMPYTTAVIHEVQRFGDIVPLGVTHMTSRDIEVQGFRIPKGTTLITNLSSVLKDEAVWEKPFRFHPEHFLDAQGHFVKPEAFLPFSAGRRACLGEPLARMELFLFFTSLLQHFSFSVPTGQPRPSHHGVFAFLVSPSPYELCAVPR
T6 sequence (P11712 whole entry): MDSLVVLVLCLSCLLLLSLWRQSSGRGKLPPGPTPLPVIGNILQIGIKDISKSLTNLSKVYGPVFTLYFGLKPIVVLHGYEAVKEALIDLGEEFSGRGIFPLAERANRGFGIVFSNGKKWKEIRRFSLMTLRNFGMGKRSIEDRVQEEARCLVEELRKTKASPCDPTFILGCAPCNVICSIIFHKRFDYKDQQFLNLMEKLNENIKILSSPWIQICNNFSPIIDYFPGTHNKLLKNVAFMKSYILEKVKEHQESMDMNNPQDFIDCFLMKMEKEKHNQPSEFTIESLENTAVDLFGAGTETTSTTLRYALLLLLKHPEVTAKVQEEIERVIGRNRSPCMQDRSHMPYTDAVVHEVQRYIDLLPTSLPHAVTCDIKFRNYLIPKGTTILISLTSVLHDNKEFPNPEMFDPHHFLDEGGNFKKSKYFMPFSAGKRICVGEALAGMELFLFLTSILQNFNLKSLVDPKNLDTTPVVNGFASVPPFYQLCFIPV
T2 sequence (P02743 20-223): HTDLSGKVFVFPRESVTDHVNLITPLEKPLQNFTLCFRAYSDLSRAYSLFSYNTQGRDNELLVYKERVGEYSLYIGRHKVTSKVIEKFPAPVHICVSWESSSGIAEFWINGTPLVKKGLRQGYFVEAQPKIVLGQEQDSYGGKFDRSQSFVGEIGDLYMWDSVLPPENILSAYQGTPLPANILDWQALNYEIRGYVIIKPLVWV
T7 sequence (P33261 whole entry): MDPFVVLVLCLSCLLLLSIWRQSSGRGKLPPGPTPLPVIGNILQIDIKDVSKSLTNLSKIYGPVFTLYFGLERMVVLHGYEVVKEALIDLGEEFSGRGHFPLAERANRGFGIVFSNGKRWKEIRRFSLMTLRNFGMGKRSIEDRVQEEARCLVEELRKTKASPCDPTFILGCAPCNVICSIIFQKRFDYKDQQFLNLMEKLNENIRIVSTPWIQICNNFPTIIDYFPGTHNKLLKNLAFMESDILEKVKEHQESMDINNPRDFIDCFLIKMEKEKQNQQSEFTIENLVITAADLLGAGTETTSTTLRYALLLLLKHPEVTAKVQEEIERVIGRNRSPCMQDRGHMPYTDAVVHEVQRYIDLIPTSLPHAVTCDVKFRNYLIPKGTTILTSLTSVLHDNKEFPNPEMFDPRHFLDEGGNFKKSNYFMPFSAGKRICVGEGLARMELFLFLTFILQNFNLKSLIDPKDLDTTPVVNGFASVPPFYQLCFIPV
T1 sequence (P02743 20-223): as the sequence (P02743 20-223) above

Consider `O=C(O)[C@H]1CCCN1C(=O)CCCCC(=O)N1CCC[C@@H]1C(=O)O` [CPHPC, (R)-1-[6-[(R)-2-carboxy-pyrrolidin-1-yl]-6-oxo-hexanoyl]pyrrolidine-2-carboxylic acid], for which the oral bioavailability in data set [1] is 3-5%. The “depletion of circulating SAP (in words)” value at circulating SAP is recorded as “almost complete depletion”. The “CSF SAP concentration after depletion by CPHPC” value on SAP (CSF, patients with Alzheimer's disease, from 2-30 μg/L) is below 0.1 µg/L. Besides, the “plasma SAP after depletion by CPHPC” value at SAP (plasma, from the normal 20-50 mg/L) is below 0.1 mg/L.

Take `CC(OC(=O)[C@H]1CCCN1C(=O)CCCCC(=O)N1CCC[C@@H]1C(=O)OC(C)OC(=O)C(C)(C)C)OC(=O)C(C)(C)C` (stereo partly drawn) [Comparator Compound, (2R,2′R)-bis(1-(pivaloyloxy)ethyl) 1,1′-adipoylbis(pyrrolidine-2-carboxylate), reference compound]: at CYP3A4 (substrate 7BQ), the “inhibition of CYP3A4-7BQ (in words)” value is on record as “significant inhibition”. The “inhibition of CYP3A4-DEF (in words)” value at CYP3A4 (substrate DEF) is recorded as “significant inhibition”.

For the compound `O=C(OCOC(=O)[C@H]1CCCN1C(=O)CCCCC(=O)N1CCC[C@@H]1C(=O)OCOC(=O)C1CCOCC1)C1CCOCC1` [Compound of Formula (I), (2R,2′R)-bis(((tetrahydro-2H-pyran-4-carbonyl)oxy)methyl) 1,1′-adipoylbis(pyrrolidine-2-carboxylate)], the solubility at 4 h in data set [2] (FaSSIF (Simulated Fasted State Intestinal Fluid pH 6.5)) was 1.04 mg/mL; in data set [2] (FeSSIF (Simulated Fed State Intestinal Fluid pH 6.5)), 0.599 mg/mL; in data set [2] (SGF (Simulated Gastric Fluid pH 1.6)) it was 0.577 mg/mL; in data set [2] (water (purified water), Water), 0.574 mg/mL. Further, the IC50 was above 33 µM on CYP2D6; above 33 µM against CYP1A2; above 33 µM against CYP2C9; above 33 µM against CYP2C19; above 33 µM at CYP3A4 (substrate 7BQ, read-out: IC50 CYP3A4 (7BQ)); above 33 µM on CYP3A4 (setting [5]). Further, the “sensitivity to hydrolysis at different pH (in words)” value in data set [3] (PBS pH6 to pH8, room temperature) is listed as “less sensitive to hydrolysis for a pH below 7.5”. In addition, the “compound hydrolysed after 24 h” value in [3] (acidic environment (pH less than 7.0), PBS, room temperature, 24 h) was “Less than 20%”. The “rate of hydrolysis in human intestinal microsomes (in words)” value in data set [4] is on record as “low rate of hydrolysis”.

Consider `O=C(OCOC(=O)[C@H]1CCCN1C(=O)CCCCC(=O)N1CCC[C@@H]1C(=O)O)C1CCOCC1` [mono-ester derivative, (R)-1-(6-oxo-6-((R)-2-((((tetrahydro-2H-pyran-4-carbonyl)oxy)methoxy)carbonyl)pyrrolidin-1-yl)hexanoyl)pyrrolidine-2-carboxylic acid], for which the IC50 against CYP2D6, at CYP1A2, against CYP2C9, against CYP2C19 and at CYP3A4 (setting [5]) was above 33 µM in each case.
